From patent US20070141636A1 (priority 2003, published 2007)
Entries after “also recorded” stand apart in the source; their conditions may differ. Like-named read-outs stand apart in the source and are kept apart here.

Legend:
LnCap cells [1] = assay type: cell-based, human
LnCap cells [2] = assay type: cell-based, human; remark: listed apart in the source
[3] = molecular target: T1, rhARLBD (ligand binding domain of the rhesus monkey AR) (Macaca mulatta, UniProt Q6QT55); test: Hydroxyapatite (HAP)-based 3H-R1881 displacement binding assay using rhARLBD expressed in yeast
T1 construct: includes amino acids 601 to 895 of the rhesus monkey AR; made in house; host or cells: yeast (pESP-1 vector, Stratagene)
T1 sequence (Q6QT55 601-895): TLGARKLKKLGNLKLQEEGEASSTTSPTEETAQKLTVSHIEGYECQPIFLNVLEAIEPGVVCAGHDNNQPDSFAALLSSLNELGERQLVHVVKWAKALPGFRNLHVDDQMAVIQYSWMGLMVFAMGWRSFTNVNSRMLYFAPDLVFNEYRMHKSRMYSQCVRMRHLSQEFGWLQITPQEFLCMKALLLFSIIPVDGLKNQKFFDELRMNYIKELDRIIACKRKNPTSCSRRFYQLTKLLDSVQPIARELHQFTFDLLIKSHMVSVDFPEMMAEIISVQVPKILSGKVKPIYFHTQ
Excerpt: The screening assays were set up to use the ARLBD from Macaca mulatta (rhesus monkey; herein after rhARLBD) expressed in yeast. […] A medium to high throughput AR binding assay for screening analyte libraries and characterizing various analytes therein was also developed.
Cloning the full length rhesus monkey AR from rhesus monkey prostrate mRNA and subsequent subcloning of the rhARLBD was done as described in WO02090529 to Towler and Chen. Briefly, the rhARLBD was PCR amplified from the full rhesus monkey AR and inserted in frame with GST at a SmaI site of the pESP-1 clone. This placed the rhARLBD downstream of the GST-flag tag.
Cell lysates comprising the rhARLBD were prepared as follows. GST-Flag-rhARLBD (Mr=60 kDa) fusion protein was expressed in yeast using the pESP-1 vector (Stratagene, La Jolla, Calif.) according to the manufacturer's protocol. After a sufficient time to express the GST-Flag-rhARLBD the yeast were centrifuged and the yeast pellet resuspended in TGEM/DTT/PI buffer (10 mM Tris-HCl, pH 7.4, 1 mM EDTA, 10% glycerol, 10 mM molybdate, 2 mM dithiothreitol (DTT), 50 μL yeast protease inhibitor cocktail (PI, Sigma Chemicals, St. Louis, Mo.) per gram of yeast and 1/10×^th volume of PI complete (PI: Boehringer-Mannheim, Roche Applied Science, Indianapolis, Ind.) per gram of yeast. The yeast cells were lysed by vortexing in the presence of glass beads in cold TGEM/DTT/PI buffer. The cell debris was centrifuged at 10,000×g for 20 minutes at 4° C. The clear supernatant fraction containing the rhARLBD was the lysate used for the assays. Usually, about 25 to 50 μL of lysate as determined by titration was used per assay. In some cases, the rhARLBD fusion protein was purified from the lysate using a batch purification method using anti-Flag M2 affinity gel (Sigma) in TEGM/DTT buffer. The rhARLBD fusion protein was eluted using TEGM/DTT buffer containing 100 μg/mL Flag peptide.
Hydroxyapatite (HAP)-based binding assays were performed as follows: For the hydroxyapatite assays, the amount of lysate used was based on titration using ^3H-ligand at concentration about the Kd value of the ligand to the corresponding receptor. In general, the assay was carried at in 150 μL of TEGM buffer. […] The samples were vortexed and incubated on ice for about 10 minutes. […] The washing process transfers the HAP pellets containing ligand-bound-expressed receptor to [sequence]-96 GF/B (Packard Instruments Co.) which has been prewetted in 0.5% polyethylimine. The HAP pellets on the filter plates were incubated with 50 μL of MICROSCINT (Packard Instruments Co.) for 2 hours before counted on the TOPCOUNT (Packard Instruments Co.). […] The binding reactions were incubated for about 18 hours at 4° C. and process as above).

LnCap cells [4] = conditions: LnCap AR with residue 877 threonine to alanine mutation; cited from earlier work
[5] = molecular target: T2, LnCap AR (residue 877 threonine to alanine) (Homo sapiens, UniProt P10275, T878A); conditions: LnCap AR expression vector; cited from earlier work
T2 sequence (P10275 1-920 T878A): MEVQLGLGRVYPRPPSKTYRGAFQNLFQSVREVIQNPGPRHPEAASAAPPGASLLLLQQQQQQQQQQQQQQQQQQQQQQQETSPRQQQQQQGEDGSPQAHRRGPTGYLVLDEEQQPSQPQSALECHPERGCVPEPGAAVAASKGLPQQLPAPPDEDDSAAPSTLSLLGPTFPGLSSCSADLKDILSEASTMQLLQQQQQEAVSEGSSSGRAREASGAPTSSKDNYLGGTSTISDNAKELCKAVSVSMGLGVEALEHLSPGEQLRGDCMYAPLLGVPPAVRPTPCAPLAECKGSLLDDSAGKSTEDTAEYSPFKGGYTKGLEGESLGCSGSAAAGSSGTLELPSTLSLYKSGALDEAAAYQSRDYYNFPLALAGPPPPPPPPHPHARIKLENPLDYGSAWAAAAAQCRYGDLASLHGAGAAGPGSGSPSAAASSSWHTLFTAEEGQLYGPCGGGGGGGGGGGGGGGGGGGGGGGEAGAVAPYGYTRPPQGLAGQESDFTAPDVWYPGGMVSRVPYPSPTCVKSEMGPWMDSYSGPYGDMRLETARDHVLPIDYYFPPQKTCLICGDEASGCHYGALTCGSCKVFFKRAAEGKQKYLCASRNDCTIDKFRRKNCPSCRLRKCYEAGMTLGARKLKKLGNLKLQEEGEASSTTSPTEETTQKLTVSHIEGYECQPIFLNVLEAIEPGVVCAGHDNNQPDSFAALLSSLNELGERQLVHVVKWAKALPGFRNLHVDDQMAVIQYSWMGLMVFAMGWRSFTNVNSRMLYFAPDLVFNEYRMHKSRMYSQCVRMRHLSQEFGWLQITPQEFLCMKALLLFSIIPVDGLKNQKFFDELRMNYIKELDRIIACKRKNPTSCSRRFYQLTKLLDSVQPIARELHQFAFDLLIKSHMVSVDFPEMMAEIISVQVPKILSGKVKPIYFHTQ

SMILES | antagonist activity on PSA production in LnCap cells (antagonist mode) (LnCap cells [1]) | agonist activity, PSA production in LnCap cells (agonist mode) (LnCap cells [2]) | stimulation of LnCap cell growth through the AR (LnCap cells [4]) | further results
C[C@]12CCC(=O)C=C1CC[C@@H]1[C@@H]2CC[C@]2(C)C(=O)CC[C@@H]12 [4-androstene-3,17β-dione] | antagonist activity; also recorded: antagonized the agonist activity of DHT and R1881 | had agonist activity | – | binding affinity to rhARLBD compared to full-length human AR ([3]; comparison of IC50s, rhARLBD (yeast lysate) vs full-length human AR (mdaAR), FIGS. 2A-2D, 3A-3D): reduced binding affinity
C[C@]12CC[C@H]3[C@@H](CCC4=C[C@@H](O)CC[C@@]43C)[C@@H]1CC[C@@H]2O [4-androstene-3β,17β-diol] | antagonist activity; also recorded: antagonized the agonist activity of DHT and R1881 | had agonist activity | – | –
CC(O)(CS(=O)(=O)c1ccc(F)cc1)C(=O)Nc1ccc(C#N)c(C(F)(F)F)c1 (stereo not shown) [CASODEX] | antagonist activity | full antagonist | retains its antagonism | –
CC(=O)O[C@]1(C(C)=O)CC[C@H]2[C@@H]3C=C(Cl)C4=CC(=O)[C@@H]5C[C@@H]5[C@]4(C)[C@H]3CC[C@@]21C [CPA, cyproterone acetate] | antagonist activity; also recorded: antagonized the agonist activity of DHT and R1881 | had agonist activity | able to stimulate cell growth | –
C[C@]12CC[C@H](O)CC1=CC[C@@H]1[C@@H]2CC[C@]2(C)C(=O)CC[C@@H]12 [DHEA, dehydroepiandrosterone] | antagonist activity; also recorded: antagonized the agonist activity of DHT and R1881 | had agonist activity | – | –
C[C@]12CCC(=O)C[C@@H]1CC[C@@H]1[C@@H]2CC[C@]2(C)[C@@H](O)CC[C@@H]12 [DHT, 5-α-dihydrotestosterone] | full agonist activity | full agonist activity; also recorded: had agonist activity | – | –
C[C@]1(O)CC[C@H]2[C@@H]3CCC4=CC(=O)CCC4=C3C=C[C@@]21C [R1881, 17 β-hydroxy-17-methyl-estra-4,9,11-trien-3-one] | does not antagonize | slightly less potent than DHT; also recorded: had agonist activity | – | IC50 [3]: ~1 nM; binding affinity to rhARLBD compared to full-length human AR [3]: same binding affinity; also recorded: no significant shift
CC(C)(O)C(=O)Nc1ccc([N+](=O)[O-])c(C(F)(F)F)c1 [hydroxyflutamide] | – | – | able to stimulate cell growth | effect on the androgen promoter in receptor/reporter cotransfection [5]: agonist effect
CC(=O)[C@H]1CC[C@H]2[C@@H]3CCC4=CC(=O)CC[C@]4(C)[C@H]3CC[C@]12C [progesterone] | – | – | able to stimulate cell growth | –
